# Structures can show the parent of a compound that is named as a salt. Where two headings read alike, the source gives them in different places.
# Experiments:
# [1] = target: T1, SARS-CoV-2 PLpro (nsp3 1564–1878) (Severe acute respiratory syndrome coronavirus 2, UniProt P0DTD1); assay: biochemical; set-up: FRET-quenched peptide (Pro3) cleavage by PLpro, 10 min pre-incubation, slope over 20 min, normalised to no-compound control; conditions: read-out: % of control remaining
# [2] = target: T1, SARS-CoV-2 PLpro (nsp3 1564–1878); assay: biochemical; set-up: FRET-quenched peptide (Pro3) cleavage by PLpro, 10 min pre-incubation, slope over 20 min, normalised to no-compound control; conditions: read-out: % of control remaining; remark: listed apart in the source
structure (smiles),measurement,setting,value
CC(C)c1cc(-c2ccc(F)c3ccccc23)nc(N)n1 [RS-127445],remaining activity at 1.25 µM,"[1]; Well no.=4683, low concentration screen",106%
same,remaining activity at 3.75 µM,"[2]; Well no.=4683, high concentration screen",102%
"CC(=O)O[C@@H]1[C@@H](OC(C)=O)[C@@H](O)[C@H](Oc2c(-c3ccc(O)cc3)oc3cc(O)cc(O)c3c2=O)O[C@H]1C [RSK Inhibitor, SL0101]",remaining activity at 1.25 µM,"[1]; Well no.=2635, low concentration screen",95.6%
same,remaining activity at 3.75 µM,"[2]; Well no.=2635, high concentration screen",97.4%
COc1ccc2[nH]cc(C3=CCNCC3)c2c1 [RU 24969],remaining activity at 1.25 µM,"[1]; Well no.=7997, low concentration screen",104%
same,remaining activity at 3.75 µM,"[2]; Well no.=7997, high concentration screen",102%
OCCC#Cc1nc(-c2ccc(F)cc2)c(-c2ccncc2)n1CCCc1ccccc1 [RWJ-67657],remaining activity at 1.25 µM,"[1]; Well no.=2987, low concentration screen",94.7%
same,remaining activity at 3.75 µM,"[2]; Well no.=2987, high concentration screen",91.7%
COC1(C2=NCCN2)COc2ccccc2O1 (stereo not drawn) [RX 821002 hydrochloride],remaining activity at 1.25 µM,"[1]; Well no.=1208, low concentration screen",100%
same,remaining activity at 3.75 µM,"[2]; Well no.=1208, high concentration screen",98.7%
CC(=O)SCC(Cc1ccccc1)C(=O)NCC(=O)OCc1ccccc1 (stereo not drawn) [Racecadotril],remaining activity at 1.25 µM,"[1]; Well no.=2191, low concentration screen",97.6%
same,remaining activity at 3.75 µM,"[2]; Well no.=2191, high concentration screen",95.7%
C[C@@H]1C[C@H]2O[C@@H]2/C=C\C=C\C(=O)Cc2c(Cl)c(O)cc(O)c2C(=O)O1 [Radicicol],remaining activity at 1.25 µM,"[1]; Well no.=3124, low concentration screen",95.9%
same,remaining activity at 3.75 µM,"[2]; Well no.=3124, high concentration screen",98.1%
O=C(c1ccc(OCCN2CCCCC2)cc1)c1c(-c2ccc(O)cc2)sc2cc(O)ccc12 [Raloxifene hydrochloride],remaining activity at 1.25 µM,"[1]; Well no.=1204, low concentration screen",97.4%
same,remaining activity at 3.75 µM,"[2]; Well no.=1204, high concentration screen",99.2%
O=C(c1ccc(OCCN2CCCCC2)cc1)c1c(-c2ccc(O)cc2)sc2cc(O)ccc12 [Raloxifene],remaining activity at 1.25 µM,"[1]; Well no.=1662, low concentration screen",107%
same,remaining activity at 3.75 µM,"[2]; Well no.=1662, high concentration screen",108%
Cc1nc(=O)c2cc(CN(C)c3ccc(C(=O)N[C@@H](CCC(=O)O)C(=O)O)s3)ccc2[nH]1 [Raltitrexed (Tomudex)],remaining activity at 1.25 µM,"[1]; Well no.=4723, low concentration screen",115%
same,remaining activity at 3.75 µM,"[2]; Well no.=4723, high concentration screen",106%
Cc1nc(=O)c2cc(CN(C)c3ccc(C(=O)N[C@@H](CCC(=O)O)C(=O)O)s3)ccc2[nH]1 [Raltitrexed],remaining activity at 1.25 µM,"[1]; Well no.=6308, low concentration screen",98.3%
same,remaining activity at 1.25 µM,"[1]; Well no.=7452, low concentration screen",104%
same,remaining activity at 3.75 µM,"[2]; Well no.=6308, high concentration screen",99.3%
same,remaining activity at 3.75 µM,"[2]; Well no.=7452, high concentration screen",99.7%
CCC(=O)NCC[C@@H]1CCc2ccc3c(c21)CCO3 [Ramelteon],remaining activity at 1.25 µM,"[1]; Well no.=8525, low concentration screen",104%
same,remaining activity at 3.75 µM,"[2]; Well no.=8525, high concentration screen",106%
CCOC(=O)[C@H](CCc1ccccc1)N[C@@H](C)C(=O)N1[C@H](C(=O)O)C[C@@H]2CCC[C@@H]21 [Ramipril],remaining activity at 1.25 µM,"[1]; Well no.=2195, low concentration screen",94.4%
same,remaining activity at 1.25 µM,"[1]; Well no.=7446, low concentration screen",99.8%
same,remaining activity at 3.75 µM,"[2]; Well no.=2195, high concentration screen",93.2%
same,remaining activity at 3.75 µM,"[2]; Well no.=7446, high concentration screen",98.5%
Cn1cc(C(=O)[C@@H]2CCc3[nH]cnc3C2)c2ccccc21 [Ramosetron (Hydrochloride)],remaining activity at 1.25 µM,"[1]; Well no.=7339, low concentration screen",102%
same,remaining activity at 3.75 µM,"[2]; Well no.=7339, high concentration screen",103%
CNC(=C[N+](=O)[O-])NCCSCc1ccc(CN(C)C)o1 [Ranitidine (hydrochloride)],remaining activity at 1.25 µM,"[1]; Well no.=6609, low concentration screen",102%
same,remaining activity at 3.75 µM,"[2]; Well no.=6609, high concentration screen",104%
CNC(=C[N+](=O)[O-])NCCSCc1ccc(CN(C)C)o1 [Ranitidine hydrochloride],remaining activity at 1.25 µM,"[1]; Well no.=1304, low concentration screen",101%
same,remaining activity at 3.75 µM,"[2]; Well no.=1304, high concentration screen",101%
CNC(=C[N+](=O)[O-])NCCSCc1ccc(CN(C)C)o1 [Ranitidine.HCl],remaining activity at 1.25 µM,"[1]; Well no.=1642, low concentration screen",105%
same,remaining activity at 3.75 µM,"[2]; Well no.=1642, high concentration screen",105%
COc1ccccc1OCC(O)CN1CCN(CC(=O)Nc2c(C)cccc2C)CC1 (stereo not drawn) [Ranolazine dihydrochloride],remaining activity at 1.25 µM,"[1]; Well no.=1254, low concentration screen",108%
same,remaining activity at 3.75 µM,"[2]; Well no.=1254, high concentration screen",106%
CO[C@H]1C[C@@H]2CC[C@@H](C)[C@@](O)(O2)C(=O)C(=O)N2CCCC[C@H]2C(=O)O[C@H]([C@H](C)C[C@@H]2CC[C@@H](O)[C@H](OC)C2)CC(=O)[C@H](C)/C=C(\C)[C@@H](O)[C@@H](OC)C(=O)[C@H](C)C[C@H](C)/C=C/C=C/C=C/1C [Rapamycin],remaining activity at 1.25 µM,"[1]; Well no.=1557, low concentration screen",99.1%
same,remaining activity at 1.25 µM,"[1]; Well no.=2555, low concentration screen",93.5%
same,remaining activity at 1.25 µM,"[1]; Well no.=3126, low concentration screen",102%
same,remaining activity at 3.75 µM,"[2]; Well no.=1557, high concentration screen",97.9%
same,remaining activity at 3.75 µM,"[2]; Well no.=2555, high concentration screen",91.9%
same,remaining activity at 3.75 µM,"[2]; Well no.=3126, high concentration screen",106%
"COc1ccc2nc3n[nH]c(C)c3c(NCCOCCO)c2c1 [Ras/Rac Transformation Blocker, SCH 51344]",remaining activity at 1.25 µM,"[1]; Well no.=2619, low concentration screen",96.5%
same,remaining activity at 3.75 µM,"[2]; Well no.=2619, high concentration screen",101%
C#CCN[C@@H]1CCc2ccccc21 [Rasagiline mesylate],remaining activity at 1.25 µM,"[1]; Well no.=4766, low concentration screen",98.4%
same,remaining activity at 3.75 µM,"[2]; Well no.=4766, high concentration screen",97.6%
COC(=O)[C@H]1[C@H]2C[C@H]3c4[nH]c5ccccc5c4CCN3C[C@H]2CC[C@@H]1O [Rauwolscine hydrochloride],remaining activity at 1.25 µM,"[1]; Well no.=1400, low concentration screen",100%
same,remaining activity at 3.75 µM,"[2]; Well no.=1400, high concentration screen",99%
COC(=O)[C@H]1[C@H]2C[C@H]3c4[nH]c5ccccc5c4CCN3C[C@H]2CC[C@@H]1O [Rauwolscine],remaining activity at 1.25 µM,"[1]; Well no.=3128, low concentration screen",99%
same,remaining activity at 3.75 µM,"[2]; Well no.=3128, high concentration screen",99.4%
Nc1c(S(=O)(=O)O)cc(Nc2ccc(Nc3nc(Cl)nc(Nc4cccc(S(=O)(=O)O)c4)n3)c(S(=O)(=O)O)c2)c2c1C(=O)c1ccccc1C2=O [Reactive Blue 2],remaining activity at 1.25 µM,[1],101%
same,remaining activity at 3.75 µM,[2],101%
O=C(NC(Cc1cc(=O)[nH]c2ccccc12)C(=O)O)c1ccc(Cl)cc1 (stereo not drawn) [Rebamipide],remaining activity at 1.25 µM,"[1]; Well no.=2197, low concentration screen",99.1%
same,remaining activity at 1.25 µM,"[1]; Well no.=6992, low concentration screen",95.1%
same,remaining activity at 3.75 µM,"[2]; Well no.=2197, high concentration screen",98.5%
same,remaining activity at 3.75 µM,"[2]; Well no.=6992, high concentration screen",98.9%
C=C1C[C@@]23CC[C@H]4[C@@](C)(CCC[C@@]4(C)C(=O)O[C@@H]4O[C@H](CO)[C@@H](O)[C@H](O)[C@H]4O)[C@@H]2CC[C@]1(O[C@@H]1O[C@H](C)[C@@H](O)[C@H](O)[C@@H]1O[C@@H]1O[C@H](CO)[C@@H](O)[C@H](O[C@@H]2O[C@H](CO)[C@@H](O)[C@H](O)[C@H]2O)[C@H]1O)C3 [Rebaudioside C],remaining activity at 1.25 µM,"[1]; Well no.=8446, low concentration screen",96%
same,remaining activity at 3.75 µM,"[2]; Well no.=8446, high concentration screen",95.9%
CNC(=O)c1cnn(-c2nc(N)c3ncn([C@@H]4O[C@H](CO)[C@@H](O)[C@H]4O)c3n2)c1 [Regadenoson],remaining activity at 1.25 µM,"[1]; Well no.=6557, low concentration screen",106%
same,remaining activity at 1.25 µM,"[1]; Well no.=8367, low concentration screen",96.6%
same,remaining activity at 3.75 µM,"[2]; Well no.=6557, high concentration screen",103%
same,remaining activity at 3.75 µM,"[2]; Well no.=8367, high concentration screen",95.1%
CC(Cc1ccccc1)(NC(=O)CN)c1ccccc1 (stereo not drawn) [Remacemide hydrochloride],remaining activity at 1.25 µM,"[1]; Well no.=5380, low concentration screen",99%
same,remaining activity at 3.75 µM,"[2]; Well no.=5380, high concentration screen",94.8%
CCN1CCC[C@H]1CNC(=O)c1c(OC)ccc(Br)c1OC [Remoxipride],remaining activity at 1.25 µM,"[1]; Well no.=1819, low concentration screen",100%
same,remaining activity at 3.75 µM,"[2]; Well no.=1819, high concentration screen",99.4%
Cc1cccc(-c2[nH]ncc2-c2ccc3ncccc3n2)n1 [RepSox],remaining activity at 1.25 µM,"[1]; Well no.=5490, low concentration screen",96.3%
same,remaining activity at 3.75 µM,"[2]; Well no.=5490, high concentration screen",95.5%

# Source: PMC8286840, “Identifying SARS-CoV-2 antiviral compounds by screening for small molecule inhibitors of Nsp3 papain-like protease” (Biochemical Journal, 2021)
